Source: US20230331781A1, “PAR4 DERIVED PEPTIDES, ANALOGS AND USES THEREOF” (Yissum Research Development Company of the Hebrew …, priority 2019, published 2023)
Entries after “also recorded” stand apart in the source; their conditions may differ. Numbered stars: 1 amine (or outer) side, 2 acyl side, 3 side chain; on linkers, the order of the positions; unused ones are H or OH. Bridge positions count the residues as written; N and C are the ends. Square brackets hold non-standard residues; d marks the D form. Ends that are not written are not given here. GlyBU(C4) = Gly building unit (N-alpha-functionalized Gly) carrying a C4 alkyl chain (n = m = 4), bridged through a urea group; CO = O=C([*:1])[*:2]

Experiments:
[1] = tested on: pY-EGFR; experiment: PAR4 induced EGFR tyrosine phosphorylation, HEK293 cells co-transfected with flg-Par4 and gfp-egfr (Western blot); format: cell-based, human; settings: HEK293 cells co-transfected with hPar4 and egfr; AYPGKF 200 μM; 100 μM; FIG. 13B
Description: FIG. 13A—Activation of PAR4 induces phosphorylation of EGFR. HEK293 cells were co-transfected with 0.4 μg of wt flg-Par4 and 0.8 μg of gfp-egfr. Cells were serum starved over night following AYPGKF PAR4 activation (200 μM) for 5-45 min. Detection by Western blot analyses of pY-EGFR and EGFR was performed using either anti-phospho tyrosine or anti EGFR antibodies respectively. PAR4 activation induces EGFR tyrosine phosphorylation within 15 min. FIG. 13B—Pc(4-4) inhibits EGFR phosphorylation. HEK293 cells were co-transfected with 0.8 μg of wt flg-Par4 and 1 μg of gfp-egfr. Cells were serum starved over night following AYPGKF PAR4 activation (200 μM) for 5-45 min in the presence and absence of PAR4 c(4-4) (100 μM). Detection by Western blot analyses of pEGFR and EGFR was performed using either anti-phospho tyrosine or anti EGFR antibodies (1:1000 dilution) respectively. […] FIG. 13C—PAR4 mutants F347L and D349A abolish pTyr-EGFR. HEK293 cells were transiently co-transfected with either flg-Par4 or flg-Par4D349A or flg-hPar4F347L with egfr1 plasmid. Cells were serum starved over night following AYPGKF PAR4 activation (200 μM) for 5-45 min. Detection by Western blot analyses of pY-EGFR and EGFR was performed using either anti-phospho tyrosine or anti-EGFR antibodies respectively. In the presence of flg-Par4 potent pTyr-EGFR1 is observed within 15′ and 30′ AYPGKF activation. […]

[2] = tested on: HCT116 cells; experiment: Xenograft tumor model, HCT116 cells inoculated subcutaneously in nude mice; format: in vivo; settings: s.c., 100 μM, 0.25 mg/30 gm, 3 times/week, from day of inoculation or 4 days later, terminated after 20 days
Description: HCT116 cells (1×10^6) were injected subcutaneously to nude mice. Pc(4-4) (100 μM; 0.25 mg/30 gm) was subcutaneously injected, either at the same day of tumor cell inoculation or 4 days later. The inhibitor was applied repeatedly 3 times/week for 3 weeks. Mice were weighted every 3 days and tumor size was measured. Mice were sacrificed after 21 days. This is a representative of three times performed experiments. […] Tumor volume measurements of HCT116 cells inoculated into nude mice. Tumors were weighed and measured for size at the indicated time points and tumor volume was calculated. Error bars show s.d.; * P<0.05; *** P<0.001; while ns are considered as not significant.
Another cell lines used in the experiment was HCT-116, an aggressive colon cancer cell line overexpressing oncogenes including PAR4.
Male athymic nude mice aged 6-7 weeks were pre-implanted subcutaneously with the relevant cells (1×10^6 cells): either with HCT-116 or with RKO/hPar4 cells.
The inhibitor was injected at the site of the tumor at the day of inoculation. In an additional group, mice implanted with HCT-116 were administered with the inhibitor at day 4 after inoculation. […]
Mice were monitored for tumor size by external caliber measurements (length and width) on days 7, 14, 22 and for up to 32 days, if tumor burden allowed. Tumor volume (V) was calculated by V=L×W^2×0.5, where L is length and W is width. […]

## Pc(4-4): backbone cyclic analog of Formula I, m=n=4, ring size 30 atoms (S[GlyBU(C4)]EFRDK[GlyBU(C4)]; bridge 2-8 via CO; not fully specified; printed as SZ1EFRDKX3)
[1]
  inhibition of PAR4 induced pY-EGFR: potent inhibition; also recorded: potently inhibited
[2]
  tumor growth / tumor size: significantly smaller tumors; also recorded: potently inhibits
[2]; listed as PAR4 (4-4)
  tumor growth / tumor size: much smaller tumors
